# Positions of bridges follow the written chain, without caps; N, C: chain ends. Non-standard residues stand in square brackets, D forms with d. Residues, ends and D or L forms follow the SMILES beside them. pGlu = O=C1CC[C@@H](C(=O)O)N1
# Legend:
# Homo sapiens [1] = species on record: Homo sapiens; assay: Liver toxicity in human assessed as induction of drug-induced liver injury by measuring verified drug-induced liver injury concern status
# Homo sapiens [2] = species on record: Homo sapiens; assay: Liver toxicity in human assessed as induction of drug-induced liver injury by measuring severity class index
# For DILI severity class in this document: key of the grades not given here.
structure (smiles),measurement,setting,value
CC[C@H](C)[C@H](NC(=O)[C@H](CC(=O)O)NC(=O)[C@H](CC(C)C)NC(=O)[C@H](CC(C)C)NC(=O)[C@H](CCCCN)NC(=O)[C@H](CCCN=C(N)N)NC(=O)[C@H](CC(N)=O)NC(=O)[C@H](CO)NC(=O)[C@H](Cc1cnc[nH]1)NC(=O)[C@H](C)NC(=O)[C@H](CCC(N)=O)NC(=O)[C@H](CCC(N)=O)NC(=O)[C@H](C)NC(=O)[C@H](CC(C)C)NC(=O)[C@H](CCC(N)=O)NC(=O)[C@H](CC(=O)O)NC(=O)[C@H](C)NC(=O)[C@H](CCCCN)NC(=O)[C@@H](NC(=O)[C@H](CCSC)NC(=O)[C@H](CCC(=O)O)NC(=O)[C@H](CC(C)C)NC(=O)[C@@H](NC(=O)[C@H](CCC(=O)O)NC(=O)[C@H](CCCN=C(N)N)NC(=O)[C@H](CC(C)C)NC(=O)[C@H](CC(C)C)NC(=O)[C@H](Cc1cnc[nH]1)NC(=O)[C@H](Cc1ccccc1)NC(=O)[C@@H](NC(=O)[C@H](CC(C)C)NC(=O)[C@H](CC(=O)O)NC(=O)[C@H](CC(C)C)NC(=O)[C@H](CO)NC(=O)[C@@H](NC(=O)[C@@H]1CCCN1C(=O)[C@@H]1CCCN1C(=O)[C@H](CCC(=O)O)NC(=O)[C@H](CCC(N)=O)NC(=O)[C@@H](N)CO)[C@@H](C)CC)[C@@H](C)O)C(C)C)[C@@H](C)O)C(=O)N[C@@H](C)C(N)=O,DILI_Concern,Homo sapiens [1],No-Dili-Concern
same,DILI_severity_class,Homo sapiens [2],0
CC(C)CN(C[C@@H](O)[C@H](Cc1ccccc1)NC(=O)O[C@H]1CCOC1)S(=O)(=O)c1ccc(N)cc1,DILI_Concern,Homo sapiens [1],Ambiguous-Dili-Concern
same,DILI_severity_class,Homo sapiens [2],3
COc1cc2c(cc1OC)[C@@H](Cc1cc(OC)c(OC)c(OC)c1)[N+](C)(CCCOC(=O)CC/C=C/CCC(=O)OCCC[N+]1(C)CCc3cc(OC)c(OC)cc3[C@H]1Cc1cc(OC)c(OC)c(OC)c1)CC2 (stereo partly drawn),DILI_Concern,Homo sapiens [1],No-Dili-Concern
same,DILI_severity_class,Homo sapiens [2],0
CNS(=O)(=O)CCc1ccc2[nH]cc(C3CCN(C)CC3)c2c1,DILI_Concern,Homo sapiens [1],Ambiguous-Dili-Concern
same,DILI_severity_class,Homo sapiens [2],4
CNS(=O)(=O)Cc1ccc2[nH]cc(CCN(C)C)c2c1,DILI_Concern,Homo sapiens [1],Ambiguous-Dili-Concern
same,DILI_severity_class,Homo sapiens [2],3
C[C@@H](O)[C@H]1C(=O)N2C(C(=O)O)=C(S[C@@H]3CN[C@H](C(=O)Nc4cccc(C(=O)O)c4)C3)[C@H](C)[C@H]12,DILI_Concern,Homo sapiens [1],Ambiguous-Dili-Concern
same,DILI_severity_class,Homo sapiens [2],3
COc1ccc(CC2c3cc(OC)c(OC)cc3CC[N+]2(C)CCC(=O)OCCCCCOC(=O)CC[N+]2(C)CCc3cc(OC)c(OC)cc3C2Cc2ccc(OC)c(OC)c2)cc1OC (stereo not drawn),DILI_Concern,Homo sapiens [1],No-Dili-Concern
same,DILI_severity_class,Homo sapiens [2],0
CC(=O)[C@@]1(O)CC[C@H]2[C@@H]3C[C@H](C)C4=CC(=O)CC[C@]4(C)[C@H]3CC[C@@]21C,DILI_Concern,Homo sapiens [1],Ambiguous-Dili-Concern
same,DILI_severity_class,Homo sapiens [2],2
CN1CCC[C@@H]1Cc1c[nH]c2ccc(CCS(=O)(=O)c3ccccc3)cc12,DILI_Concern,Homo sapiens [1],Ambiguous-Dili-Concern
same,DILI_severity_class,Homo sapiens [2],3
CCCc1nc(C)c2c(=O)[nH]c(-c3cc(S(=O)(=O)N4CCN(CC)CC4)ccc3OCC)nn12,DILI_Concern,Homo sapiens [1],Ambiguous-Dili-Concern
same,DILI_severity_class,Homo sapiens [2],3
FC(F)(F)C(F)(F)C(F)(F)F,DILI_Concern,Homo sapiens [1],No-Dili-Concern
same,DILI_severity_class,Homo sapiens [2],0
O=C(O)c1ccccc1-c1c2ccc(=O)cc-2oc2cc(O)ccc12,DILI_Concern,Homo sapiens [1],No-Dili-Concern
same,DILI_severity_class,Homo sapiens [2],0
O=S([O-])([O-])=S.[Na+].[Na+],DILI_Concern,Homo sapiens [1],No-Dili-Concern
same,DILI_severity_class,Homo sapiens [2],0
CCCC[C@](C)(O)C/C=C/[C@H]1[C@H](O)CC(=O)[C@@H]1CCCCCCC(=O)OC,DILI_Concern,Homo sapiens [1],Ambiguous-Dili-Concern
same,DILI_severity_class,Homo sapiens [2],3
C/C=C1\NC(=O)[C@@H]2CSSCC/C=C/[C@@H](CC(=O)N[C@H](C(C)C)C(=O)N2)OC(=O)[C@H](C(C)C)NC1=O,DILI_Concern,Homo sapiens [1],No-Dili-Concern
same,DILI_severity_class,Homo sapiens [2],0
C=CC[N+]1([C@H]2C[C@H]3[C@@H]4CC[C@H]5C[C@H](O)C(N6CCOCC6)C[C@]5(C)[C@H]4CC[C@]3(C)[C@H]2OC(C)=O)CCCC1 (stereo partly drawn),DILI_Concern,Homo sapiens [1],No-Dili-Concern
same,DILI_severity_class,Homo sapiens [2],0
CC(=O)[C@@]1(O)CC[C@H]2[C@@H]3C=C(C)C4=CC(=O)CC[C@]4(C)[C@H]3CC[C@@]21C,DILI_Concern,Homo sapiens [1],Ambiguous-Dili-Concern
same,DILI_severity_class,Homo sapiens [2],1
O=S(=O)(O)O[C@@H]1[C@@H](OS(=O)(=O)O)[C@H](O[C@@H]2CO[C@@H](O)[C@H](OS(=O)(=O)O)[C@H]2OS(=O)(=O)O)OC[C@H]1O,DILI_Concern,Homo sapiens [1],Ambiguous-Dili-Concern
same,DILI_severity_class,Homo sapiens [2],3
CC1=C(CCC(=O)O)c2cc3[nH]c(cc4[nH]c(cc5nc(cc1n2)C(C)=C5C(C)OC(C)c1c(C)c2cc5nc(cc6nc(cc7[nH]c(cc1[nH]2)c(C)c7CCC(=O)O)C(CCC(=O)O)=C6C)C(C(C)O)=C5C)c(C)c4C(C)O)c(C)c3CCC(=O)O (stereo not drawn),DILI_Concern,Homo sapiens [1],No-Dili-Concern
same,DILI_severity_class,Homo sapiens [2],0
O=[N+]([O-])O[C@@H]1CO[C@H]2[C@@H]1OC[C@H]2O,DILI_Concern,Homo sapiens [1],Ambiguous-Dili-Concern
same,DILI_severity_class,Homo sapiens [2],3
C#C[C@@]1(OC(C)=O)CC[C@H]2[C@@H]3CCC4=CC(=O)CC[C@@H]4[C@H]3CC[C@@]21C,DILI_Concern,Homo sapiens [1],No-Dili-Concern
same,DILI_severity_class,Homo sapiens [2],0
C=C1[C@H](CO)[C@@H](O)C[C@@H]1n1cnc2c(=O)[nH]c(N)nc21.O,DILI_Concern,Homo sapiens [1],Ambiguous-Dili-Concern
same,DILI_severity_class,Homo sapiens [2],7
CC(C)(C)NC(=O)[C@@H]1CN(Cc2cccnc2)CCN1C[C@@H](O)C[C@@H](Cc1ccccc1)C(=O)N[C@H]1c2ccccc2C[C@H]1O.O,DILI_Concern,Homo sapiens [1],Ambiguous-Dili-Concern
same,DILI_severity_class,Homo sapiens [2],8
CN1CC(=O)N2[C@H](c3ccc4c(c3)OCO4)c3[nH]c4ccccc4c3C[C@@H]2C1=O,DILI_Concern,Homo sapiens [1],Ambiguous-Dili-Concern
same,DILI_severity_class,Homo sapiens [2],3
CC[C@H](C)[C@@H]1NC(=O)[C@H](Cc2ccc(O)cc2)NC(=O)[C@@H](N)CSSC[C@@H](C(=O)N2CCC[C@H]2C(=O)N[C@@H](CC(C)C)C(=O)NCC(N)=O)NC(=O)[C@H](CC(N)=O)NC(=O)[C@H]([C@@H](C)O)NC1=O (H-CYITNCPLG-NH2; disulfide 1-6),DILI_Concern,Homo sapiens [1],No-Dili-Concern
same,DILI_severity_class,Homo sapiens [2],0
CCNC(=O)[C@@H]1CCCN1C(=O)[C@H](CCCNC(=N)N)NC(=O)[C@H](CC(C)C)NC(=O)[C@H](CC(C)C)NC(=O)[C@H](Cc1ccc(O)cc1)NC(=O)[C@H](CO)NC(=O)[C@H](Cc1c[nH]c2ccccc12)NC(=O)[C@H](Cc1c[nH]cn1)NC(=O)[C@@H]1CCC(=O)N1 ([pGlu]HWSYLLRP-NHEt),DILI_Concern,Homo sapiens [1],Less-Dili-Concern
same,DILI_severity_class,Homo sapiens [2],3
CC(C)=CCN1CC[C@]2(C)c3cc(O)ccc3C[C@H]1[C@H]2C [(+)-PENTAZOCINE],DILI_Concern,Homo sapiens [1],No-Dili-Concern
same,DILI_severity_class,Homo sapiens [2],0
"O[C@@H](c1cc(C(F)(F)F)nc2c(C(F)(F)F)cccc12)[C@H]1CCCCN1 [(S,R)-MEFLOQUINE]",DILI_Concern,Homo sapiens [1],Less-Dili-Concern
same,DILI_severity_class,Homo sapiens [2],7
Nc1nc(NC2CC2)c2ncn([C@H]3C=C[C@@H](CO)C3)c2n1 [ABACAVIR],DILI_Concern,Homo sapiens [1],Most-Dili-Concern
same,DILI_severity_class,Homo sapiens [2],8
CC(=O)NCCCS(=O)(=O)O [ACAMPROSATE],DILI_Concern,Homo sapiens [1],Less-Dili-Concern
same,DILI_severity_class,Homo sapiens [2],3
C[C@H]1O[C@H](O[C@H]2[C@H](O)[C@@H](O)[C@@H](O[C@H]3[C@H](O)[C@@H](O)C(O)O[C@@H]3CO)O[C@@H]2CO)[C@H](O)[C@@H](O)[C@@H]1N[C@H]1C=C(CO)[C@@H](O)[C@H](O)[C@H]1O (stereo partly drawn) [ACARBOSE],DILI_Concern,Homo sapiens [1],Most-Dili-Concern
same,DILI_severity_class,Homo sapiens [2],8
CCCC(=O)Nc1ccc(OCC(O)CNC(C)C)c(C(C)=O)c1 (stereo not drawn) [ACEBUTOLOL],DILI_Concern,Homo sapiens [1],Less-Dili-Concern
same,DILI_severity_class,Homo sapiens [2],3
O=C(O)COC(=O)Cc1ccccc1Nc1c(Cl)cccc1Cl [ACECLOFENAC],DILI_Concern,Homo sapiens [1],Less-Dili-Concern
same,DILI_severity_class,Homo sapiens [2],0
CC(=O)Nc1nnc(S(N)(=O)=O)s1 [ACETAZOLAMIDE],DILI_Concern,Homo sapiens [1],Most-Dili-Concern
same,DILI_severity_class,Homo sapiens [2],8
CC(=O)NO [ACETOHYDROXAMIC ACID],DILI_Concern,Homo sapiens [1],Ambiguous-Dili-Concern
same,DILI_severity_class,Homo sapiens [2],3
CC(=O)OCC[N+](C)(C)C.[Cl-] [ACETYLCHOLINE CHLORIDE],DILI_Concern,Homo sapiens [1],No-Dili-Concern
same,DILI_severity_class,Homo sapiens [2],0
CC(=O)N[C@@H](CS)C(=O)O [ACETYLCYSTEINE],DILI_Concern,Homo sapiens [1],No-Dili-Concern
same,DILI_severity_class,Homo sapiens [2],0
COc1cc(C)c(/C=C/C(C)=C/C=C/C(C)=C/C(=O)O)c(C)c1C [ACITRETIN],DILI_Concern,Homo sapiens [1],Most-Dili-Concern
same,DILI_severity_class,Homo sapiens [2],5
Nc1nc2c(ncn2COCCO)c(=O)[nH]1 [ACYCLOVIR],DILI_Concern,Homo sapiens [1],Less-Dili-Concern
same,DILI_severity_class,Homo sapiens [2],5
Nc1ncnc2c1ncn2CCOCP(=O)(O)O [ADEFOVIR],DILI_Concern,Homo sapiens [1],Less-Dili-Concern
same,DILI_severity_class,Homo sapiens [2],2
Nc1ncnc2c1ncn2[C@@H]1O[C@H](CO)[C@@H](O)[C@H]1O [ADENOSINE],DILI_Concern,Homo sapiens [1],No-Dili-Concern
same,DILI_severity_class,Homo sapiens [2],0
CC(N)C(=O)OC(C)(C)Cc1ccc(Cl)cc1 (stereo not drawn) [ALAPROCLATE],DILI_Concern,Homo sapiens [1],Most-Dili-Concern
same,DILI_severity_class,Homo sapiens [2],8
CS(=O)(=O)O.C[C@H](N)C(=O)N[C@@H](C)C(=O)N[C@H]1[C@@H]2CN(c3nc4c(cc3F)c(=O)c(C(=O)O)cn4-c3ccc(F)cc3F)C[C@@H]21 [ALATROFLOXACIN MESYLATE],DILI_Concern,Homo sapiens [1],Most-Dili-Concern
same,DILI_severity_class,Homo sapiens [2],8
CCCSc1ccc2nc(NC(=O)OC)[nH]c2c1 [ALBENDAZOLE],DILI_Concern,Homo sapiens [1],Most-Dili-Concern
same,DILI_severity_class,Homo sapiens [2],7
CC(C)(C)NCC(O)c1ccc(O)c(CO)c1 (stereo not drawn) [ALBUTEROL],DILI_Concern,Homo sapiens [1],No-Dili-Concern
same,DILI_severity_class,Homo sapiens [2],0
C=CCOc1ccc(CC(=O)O)cc1Cl [ALCLOFENAC],DILI_Concern,Homo sapiens [1],Most-Dili-Concern
same,DILI_severity_class,Homo sapiens [2],8
NCCCC(O)(P(=O)(O)O)P(=O)(O)O [ALENDRONIC ACID],DILI_Concern,Homo sapiens [1],Less-Dili-Concern
same,DILI_severity_class,Homo sapiens [2],0
COc1cc2nc(N(C)CCCNC(=O)C3CCCO3)nc(N)c2cc1OC (stereo not drawn) [ALFUZOSIN],DILI_Concern,Homo sapiens [1],Less-Dili-Concern
same,DILI_severity_class,Homo sapiens [2],5
Oc1ncnc2[nH]ncc12 [ALLOPURINOL],DILI_Concern,Homo sapiens [1],Most-Dili-Concern
same,DILI_severity_class,Homo sapiens [2],8

# Source: ChEMBL document CHEMBL4028802, “DILIrank: the largest reference drug list ranked by the risk for developing drug-induced liver injury in humans” (Drug Discov Today, 2016)
